Results as given in ChEMBL document CHEMBL1135048, “Synthesis and biological evaluation of 2-indolyloxazolines as a new class of tubulin polymerization inhibitors. Discovery of A-289099 as an orally active antitumor agent” (Bioorg Med Chem Lett, 2002).
≈ marks a conversion by molar mass, not a printed value. One block for each molecule: values may come before it.

Key:
[1] = organism: Bos taurus; assay: (§1) Inhibition of bovine brain microtubule polymerization; format: functional
[2] = Oral bioavailability in rat (dose single 10 mg/kg); format: ADME, organism-based; conditions: in vivo
[3] = tested on: HCT-15; assay: Antiproliferative activity against the MDR positive human colon adenocarcinoma cell line HCT-15; format: functional, cell-based
[4] = tested on: NCI-H460; assay: Antiproliferative activity against the human non small cell lung carcinoma cell line NCI-H460; format: functional, cell-based
[5] = Area under curve value in monkey at a dose of 5 mg/kg; format: ADME, organism-based; design: dose 5 mg/kg; conditions: cercopithecidae, in vivo
[6] = Oral bioavailability in dog (dose 5 mg/kg); format: ADME, organism-based, Canis lupus familiaris; conditions: in vivo
[7] = Area under curve value in mouse at a dose of 10 mg/kg; format: ADME, organism-based; design: dose 10 mg/kg; conditions: in vivo
[8] = Half life period in mouse after 10 mg/Kg dose; format: ADME, organism-based; conditions: in vivo
[9] = Area under curve value in dog at a dose of 5 mg/kg; format: ADME, organism-based, Canis lupus familiaris; design: dose 5 mg/kg; conditions: in vivo
[10] = Oral bioavailability in rat (dose 5 mg/kg; format: ADME, organism-based; conditions: in vivo
[11] = Half life period in rat after 5 mg/Kg dose; format: ADME, organism-based; conditions: in vivo
[12] = Half life period in monkey after 5 mg/kg dose; format: ADME, organism-based; design: dose 5 mg/kg; conditions: cercopithecidae, in vivo
[13] = as §1; format: functional, Bos taurus
[14] = Half life period in dog after 5 mg/kg dose; format: ADME, organism-based, Canis lupus familiaris; design: dose 5 mg/kg; conditions: in vivo
[15] = Oral bioavailability in mouse (dose 10 mg/kg); format: ADME, organism-based; conditions: in vivo
[16] = Oral bioavailability in monkey (dose 5 mg/kg); format: ADME, organism-based; conditions: cercopithecidae, in vivo
[17] = Area under curve value in rat at a dose of 5 mg/kg; format: ADME, organism-based; design: dose 5 mg/kg; conditions: in vivo
[18] = target: T1, Tubulin beta chain (Bos taurus, UniProt Q6B856); assay: Activity towards binding at colchicine site of bovine brain tubulin
T1 sequence (Q6B856 whole entry): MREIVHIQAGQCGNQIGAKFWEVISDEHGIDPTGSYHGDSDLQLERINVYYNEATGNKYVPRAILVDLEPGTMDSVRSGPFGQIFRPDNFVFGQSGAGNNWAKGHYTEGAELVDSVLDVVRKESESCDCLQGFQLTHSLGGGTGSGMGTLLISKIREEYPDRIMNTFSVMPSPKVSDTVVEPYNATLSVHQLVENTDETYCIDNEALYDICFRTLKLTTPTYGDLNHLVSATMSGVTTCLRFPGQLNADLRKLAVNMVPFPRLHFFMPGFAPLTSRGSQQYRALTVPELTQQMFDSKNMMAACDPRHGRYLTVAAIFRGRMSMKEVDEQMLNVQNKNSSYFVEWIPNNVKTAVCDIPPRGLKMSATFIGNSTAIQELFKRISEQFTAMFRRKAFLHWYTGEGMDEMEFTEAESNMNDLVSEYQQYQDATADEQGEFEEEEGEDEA

[19] = Half life period in rat after 5 mg/kg dose; format: ADME, organism-based; design: dose 5 mg/kg; conditions: in vivo
[20] = Partition coefficient of compound; format: physicochemical; conditions: octanol/water
[21] = pKa of the compound; format: physicochemical
[22] = tested on: Mus musculus; assay: Increase in life span of M5076 murine ovarian sarcoma bearing mice at a dose of 100 mg/kg/day; format: functional
[23] = tested on: Mus musculus; assay: In vivo efficacy to delay 1 g volume of M5076 murine ovarian sarcoma formation in mice at a dose of 100 mg/Kg/day; format: functional
[24] = tested on: Mus musculus; assay: In vivo efficacy to delay 1 g volume of M5076 murine ovarian sarcoma formation in mice at a dose of 50 mg/Kg/day; format: functional
[25] = Half life period in mouse after 10 mg/kg dose; format: ADME, organism-based; design: dose 10 mg/kg; conditions: in vivo
[26] = Solubility of compound in pH 7.4 phosphate buffer; format: physicochemical
[27] = tested on: HCT-15; assay: Inhibitory concentration of compound against of microtubule […] in human HCT-15 colon carcinoma; format: functional, cell-based
[28] = tested on: Mus musculus; assay: Increase in life span of M5076 murine ovarian sarcoma bearing mice at a dose of 50 mg/Kg/day; format: functional
[29] = tested on: A549; assay: Activity against human lung cancer with mutated beta-tubulin (A549-T2415); format: functional, cell-based
[30] = Solubility of compound in 0.1 M HCl; format: physicochemical; conditions: read-out: S
[31] = target: T1, Tubulin beta chain; assay: Binding constant at colchicine site of bovine brain tubulin

Compound: COc1ccc(/C=C\c2cc(OC)c(OC)c(OC)c2)cc1O [COMBRETASTATIN A4]
- IC50 [1]: 1600 nM

- bioavailability [2]: 2.5%
- IC50 [3]: 37 nM
- IC50 [4]: 87 nM
Compound: COc1cc(C2CN=C(c3cn(C)c4ccccc34)O2)cc(OC)c1OC (centres undefined)

- IC50 [3]: 660 nM
- IC50 [4]: 1500 nM
Compound: COc1cc(C2CN=C(c3cc4ccccc4n3C)O2)cc(OC)c1OC (centres undefined)

- IC50 [4]: > 10 nM
Compound: CC(=O)O[C@H]1C(=O)[C@@]2(C)[C@H]([C@H](OC(=O)c3ccccc3)[C@]3(O)C[C@H](OC(=O)[C@H](O)[C@@H](NC(=O)c4ccccc4)c4ccccc4)C(C)=C1C3(C)C)[C@]1(OC(C)=O)CO[C@@H]1C[C@@H]2O [PACLITAXEL]

- IC50 [3]: 1200 nM
- IC50 [4]: > 100000 nM
Compound: COc1cc(C2CN=C(c3ccc4[nH]c(O)nc4c3)O2)cc(OC)c1OC (centres undefined)

- bioavailability [2]: 34.7%
- IC50 [3]: 16 nM
- IC50 [4]: 14 nM
Compound: COc1cc(C2CN=C(c3ccc4c(ccn4C)c3)O2)cc(OC)c1OC (centres undefined)

- bioavailability [2]: 0%
- IC50 [3]: 540 nM
- IC50 [4]: 470 nM
Compound: COc1cc(C2CN=C(c3cccc4cc[nH]c34)O2)cc(OC)c1OC (centres undefined)

- bioavailability [2]: 0%
- IC50 [3]: 67 nM
- IC50 [4]: 82 nM
Compound: COc1cc(C2CN=C(c3c[nH]c4ccccc34)O2)cc(OC)c1OC (centres undefined)

- IC50 [3]: 16300 nM
- IC50 [4]: 8180 nM
Compound: COc1cc(C2CN=C(c3ccc4c(ccn4S(C)(=O)=O)c3)O2)cc(OC)c1OC (centres undefined)

- bioavailability [2]: 19.8%
- IC50 [3]: 3800 nM
- IC50 [4]: 4200 nM
Compound: COc1cc(C2CN=C(c3ccc4c(ccn4CC(F)(F)F)c3)O2)cc(OC)c1OC (centres undefined)

- IC50 [3]: 2400 nM
- IC50 [4]: 3200 nM
Compound: COc1cc(C2CN=C(c3ccc4ncccc4c3)O2)cc(OC)c1OC (centres undefined)

- AUC [5]: 890 ng·h/mL
- bioavailability [6]: 7%
- IC50 [3]: 390 nM
- AUC [7]: 400 ng·h/mL
- half-life [8]: 1.3 h
- AUC [9]: 330 ng·h/mL
- bioavailability [10]: 44%
- IC50 [4]: 460 nM
- half-life [11]: 1.3 h
- half-life [12]: 1.4 h
- IC50 [13]: 740000 nM
- half-life [14]: 2.9 h
- bioavailability [15]: 21%
- bioavailability [16]: 16.2%
- AUC [17]: 3040 ng·h/mL
Compound: COc1cc([C@@H]2CN=C(c3ccc4c(ccn4C)c3)O2)cc(OC)c1OC

- IC50 [18]: 3400 nM
Compound: COc1cc(C2OC(c3ccc(N)c(C)c3)=NN2C(C)=O)cc(OC)c1OC (centres undefined)

- IC50 [3]: 520 nM
- IC50 [4]: 520 nM
Compound: COc1cc(C2CN=C(c3ccc4cc(C)cn4c3)O2)cc(OC)c1OC (centres undefined)

- IC50 [3]: 28000 nM
- IC50 [4]: 100000 nM
Compound: COc1cc(C2CN=C(c3ccc4cncn4c3)O2)cc(OC)c1OC (centres undefined)

- IC50 [3]: 160000 nM
- IC50 [4]: 270000 nM
Compound: COc1cc(C2CN=C(c3cnc4ccccc4c3)O2)cc(OC)c1OC (centres undefined)

Compound: COc1cc([C@H]2CN=C(c3ccc4c(ccn4C)c3)O2)cc(OC)c1OC
- AUC [5]: 1750 ng·h/mL
- half-life [19]: 2.1 h
- bioavailability [6]: 6.5%
- IC50 [3]: 8.6 nM
- AUC [7]: 5690 ng·h/mL
- logD [20]: 3.94
- pKa [21]: 5
- AUC [9]: 160 ng·h/mL
- ILS at 100 mg/kg/day [22]: 206%
- bioavailability [10]: 17.1%
- Mean tumor delay [23]: 28.4 days
- IC50 [4]: 6.2 nM
- Mean tumor delay [24]: 19 days
- half-life [12]: 1.3 h
- half-life [25]: 1.1 h
- IC50 [13]: 2300 nM
- half-life [14]: 3.3 h
- solubility [26]: 0.7 µg/mL (≈ 1.91 µM)
- bioavailability [15]: 15.1%
- Concentration [27]: 44 nM
- ILS at 50 mg/kg/day [28]: 139%
- IC50 [29]: 6.3 nM
- bioavailability [16]: 18.6%
- AUC [17]: 7180 ng·h/mL
- solubility [30]: 1270 µg/mL (≈ 3470 µM)

Compound: COc1cc2c(c(OC)c1OC)-c1ccc(OC)c(=O)cc1[C@@H](NC(C)=O)CC2 [COLCHICINE]
- IC50 [3]: 140 nM
- IC50 [4]: 46 nM

- bioavailability [2]: 10.5%
- IC50 [3]: 120 nM
- IC50 [4]: 330 nM
Compound: COc1cc(C2CN=C(c3ccc4cc[nH]c4c3)O2)cc(OC)c1OC (centres undefined)

- bioavailability [2]: 38.1%
- IC50 [3]: 200 nM
- IC50 [4]: 100 nM
Compound: COc1cc(C2CN=C(c3ccc4[nH]ccc4c3)O2)cc(OC)c1OC (centres undefined)

- Ki [31]: > 100000 nM
- IC50 [3]: 43 nM
- IC50 [4]: 3.4 nM
- IC50 [13]: 1000 nM
Compound: CC[C@]1(O)C[C@@H]2CN(CCc3c([nH]c4ccccc34)[C@@](C(=O)OC)(c3cc4c(cc3OC)N(C)[C@H]3[C@@](O)(C(=O)OC)[C@H](OC(C)=O)[C@]5(CC)C=CCN6CC[C@]43[C@@H]65)C2)C1 [VINBLASTINE]

- IC50 [3]: 6400 nM
- IC50 [4]: 7100 nM
Compound: COc1cc(C2CN=C(c3ccc4[nH]cnc4c3)O2)cc(OC)c1OC (centres undefined)

- IC50 [3]: 40000 nM
- IC50 [4]: 16000 nM
Compound: COc1cc(C2CN=C(c3ccc4nccn4c3)O2)cc(OC)c1OC (centres undefined)

- bioavailability [2]: 55.8%
- IC50 [3]: 2900 nM
- IC50 [4]: 2900 nM
Compound: COc1cc(C2CN=C(c3ccc4c(ccn4C4CC4)c3)O2)cc(OC)c1OC (centres undefined)

- bioavailability [2]: 40%
- IC50 [3]: 150 nM
- IC50 [4]: 350 nM
Compound: COc1cc(C2CN=C(c3cc4ccccc4[nH]3)O2)cc(OC)c1OC (centres undefined)

- bioavailability [2]: 2.5%
- IC50 [3]: 37 nM
- IC50 [4]: 87 nM
Compound: COc1cc(C2CN=C(c3cccc4c3ccn4C)O2)cc(OC)c1OC (centres undefined)

- bioavailability [2]: 0%
- IC50 [3]: 61 nM
- IC50 [4]: 57 nM
Compound: COc1cc(C2CN=C(c3cccc4[nH]ccc34)O2)cc(OC)c1OC (centres undefined)

- IC50 [3]: 170 nM
- IC50 [4]: 210 nM
Compound: COc1cc(C2CN=C(c3ccc4c(c3)cc(C)n4C)O2)cc(OC)c1OC (centres undefined)

- IC50 [3]: 44000 nM
- IC50 [4]: 37000 nM
Compound: COc1cc(C2CN=C(c3ccnc4ccccc34)O2)cc(OC)c1OC (centres undefined)

- bioavailability [2]: 0%
- IC50 [3]: 280 nM
- IC50 [4]: 420 nM
Compound: COc1cc(C2CN=C(c3ccc4ccn(C)c4c3)O2)cc(OC)c1OC (centres undefined)

- IC50 [3]: 15000 nM
- IC50 [4]: 150000 nM
Compound: COc1cc(C2CN=C(c3cccc4ccn(C)c34)O2)cc(OC)c1OC (centres undefined)

- bioavailability [2]: 34.3%
- IC50 [3]: 480 nM
- IC50 [4]: 680 nM
Compound: COCn1ccc2cc(C3=NCC(c4cc(OC)c(OC)c(OC)c4)O3)ccc21 (centres undefined)

- IC50 [3]: 510 nM
- IC50 [4]: 810 nM
Compound: COc1cc(C2CN=C(c3ccc4c(c3)CCN4C)O2)cc(OC)c1OC (centres undefined)

- bioavailability [2]: 11.1%
- IC50 [3]: 70 nM
- IC50 [4]: 49 nM
Compound: CCn1ccc2cc(C3=NCC(c4cc(OC)c(OC)c(OC)c4)O3)ccc21 (centres undefined)

- IC50 [3]: 1300 nM
- IC50 [4]: 1200 nM
Compound: COc1cc(C2CN=C(c3ccc4c(c3)nc(C)n4C)O2)cc(OC)c1OC (centres undefined)
